Reference: ChEMBL document CHEMBL1201862, “PubChem BioAssay data set” (2004)
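48-hour exposure; five concentrations; linearly interpolated endpoints. Here, GI50 denotes the concentration required for 50% inhibition of growth.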 Activity calls are given as the source filed them. Cut-off read from the data, not from the text of the source: active = GI50 up to about 1.1 µM and inactive = higher.

What was measured:
Assay in all cases: growth of human tumour cells (NCI), 48 h
K562 = system: K562
MDA-MB-435 = system: MDA-MB-435
NCI-H226 = system: NCI-H226
SF-295 = system: SF-295
ACHN = system: ACHN
UACC-257 = system: UACC-257
MCF7 = system: MCF7
RPMI-8226 = system: RPMI-8226
PC-3 = system: PC-3
DU-145 = system: DU-145
KM12 = system: KM12
MOLT-4 = system: MOLT-4
OVCAR-8 = system: OVCAR-8
UO-31 = system: UO-31
786-0 = system: 786-0
SNB-19 = system: SNB-19
BT-549 = system: BT-549
SR = system: SR
A498 = system: A498
SK-MEL-28 = system: SK-MEL-28

Structure (SMILES)	GI50 (K562)	GI50 (MDA-MB-435)	GI50 (NCI-H226)	GI50 (SF-295)	GI50 (ACHN)	GI50 (UACC-257)	GI50 (MCF7)	GI50 (RPMI-8226)	GI50 (PC-3)	GI50 (DU-145)	GI50 (KM12)	GI50 (MOLT-4)	GI50 (OVCAR-8)	GI50 (UO-31)	GI50 (786-0)	GI50 (SNB-19)	GI50 (BT-549)	GI50 (SR)	GI50 (A498)	GI50 (SK-MEL-28)
CCOC(=O)CCC(C(=O)OCC)n1nnc2ccc(Nc3c(C)[n+]([O-])c4cc(Cl)ccc4[n+]3[O-])cc21 (stereo unspecified)	22.6 µM (inactive)	19.2 µM (inactive)	26.5 µM (inactive)	68.1 µM (inactive)	34.7 µM (inactive)	16.3 µM (inactive)	17.9 µM (inactive)	20.9 µM (inactive)	53.8 µM (inactive)	30.4 µM (inactive)	22.2 µM (inactive)	38.2 µM (inactive)	21.5 µM (inactive)	34.8 µM (inactive)	45.4 µM (inactive)	> 100 µM (inactive)	26.5 µM (inactive)	30.3 µM (inactive)		
CC(=O)Nc1ccc2c(c1)/C(=C\c1ccc([N+](C)(C)C)cc1)c1ccccc1-2	29.6 µM (inactive)	36.2 µM (inactive)	23.1 µM (inactive)	46.1 µM (inactive)	> 100 µM (inactive)	30.6 µM (inactive)	32 µM (inactive)	24.9 µM (inactive)	19.9 µM (inactive)	89.3 µM (inactive)	31.9 µM (inactive)	32.9 µM (inactive)	41.7 µM (inactive)	29.6 µM (inactive)	77.8 µM (inactive)	23.6 µM (inactive)	34.3 µM (inactive)		42.1 µM (inactive)	35.5 µM (inactive)
Cc1cccc(Nc2nc3ccccc3nc2NS(=O)(=O)c2ccccc2)c1	72.1 µM (inactive)	46.6 µM (inactive)	70 µM (inactive)	14.5 µM (inactive)	28.9 µM (inactive)	26.1 µM (inactive)	26.5 µM (inactive)	7.01 µM (inactive)	14.4 µM (inactive)	44.3 µM (inactive)	20.3 µM (inactive)	12.6 µM (inactive)	29.3 µM (inactive)	15.1 µM (inactive)	39.4 µM (inactive)	18.1 µM (inactive)	40.1 µM (inactive)	25.6 µM (inactive)		38.7 µM (inactive)
O=c1[nH][nH]c(=O)n1Cc1cccc(Cn2c(=O)[nH][nH]c2=O)c1	> 100 µM (inactive)	> 100 µM (inactive)	> 100 µM (inactive)			> 100 µM (inactive)	> 100 µM (inactive)	> 100 µM (inactive)	> 100 µM (inactive)	> 100 µM (inactive)	> 100 µM (inactive)	> 100 µM (inactive)	> 100 µM (inactive)	> 100 µM (inactive)	> 100 µM (inactive)	> 100 µM (inactive)	> 100 µM (inactive)	> 100 µM (inactive)	> 100 µM (inactive)	> 100 µM (inactive)
CCCCOC(=O)C(NC(C(=O)OCCCC)c1cc(C(C)(C)C)c(O)c(C(C)(C)C)c1)c1cc(C(C)(C)C)c(O)c(C(C)(C)C)c1 (stereo unspecified)	56.9 µM (inactive)	> 100 µM (inactive)	> 100 µM (inactive)	> 100 µM (inactive)	> 100 µM (inactive)	> 100 µM (inactive)	> 100 µM (inactive)	31.5 µM (inactive)	> 100 µM (inactive)	> 100 µM (inactive)	> 100 µM (inactive)	75 µM (inactive)	> 100 µM (inactive)	74.6 µM (inactive)	> 100 µM (inactive)	> 100 µM (inactive)	> 100 µM (inactive)		> 100 µM (inactive)	> 100 µM (inactive)
COC(=O)Nc1nc2cc(NS(=O)(=O)c3ccc(F)cc3)ccc2[nH]1	4.65 µM (inactive)	2.65 µM (inactive)	77.8 µM (inactive)	14.5 µM (inactive)	42.2 µM (inactive)		4.57 µM (inactive)	15 µM (inactive)	22.9 µM (inactive)	39.2 µM (inactive)	4.43 µM (inactive)	6.75 µM (inactive)	35 µM (inactive)	37.6 µM (inactive)	40 µM (inactive)	6.46 µM (inactive)	> 100 µM (inactive)		11.3 µM (inactive)	9.75 µM (inactive)
NCCCN(CCCN)CCc1cn(C(=O)c2ccccc2)cn1	3.61 µM (inactive)	5.73 µM (inactive)	9.64 µM (inactive)	12.7 µM (inactive)	6.5 µM (inactive)	9.2 µM (inactive)	2.62 µM (inactive)	2.38 µM (inactive)	8.63 µM (inactive)	4.32 µM (inactive)	7.82 µM (inactive)	2.19 µM (inactive)	16.9 µM (inactive)		8.59 µM (inactive)	15.1 µM (inactive)	12.5 µM (inactive)	2.24 µM (inactive)		13.8 µM (inactive)
CCCCCCCc1ccc(-c2nnc(/N=N/c3ccc(OCCCCC)cc3)s2)s1		> 100 µM (inactive)	> 100 µM (inactive)	> 100 µM (inactive)	> 100 µM (inactive)	> 100 µM (inactive)	> 100 µM (inactive)	> 100 µM (inactive)	> 100 µM (inactive)	> 100 µM (inactive)	> 100 µM (inactive)	> 100 µM (inactive)		> 100 µM (inactive)	> 100 µM (inactive)	> 100 µM (inactive)	> 100 µM (inactive)		> 100 µM (inactive)	> 100 µM (inactive)
CNc1cc2oc(=O)cc(C)c2cc1C	> 100 µM (inactive)	86.3 µM (inactive)	> 100 µM (inactive)	> 100 µM (inactive)	> 100 µM (inactive)	> 100 µM (inactive)	96.8 µM (inactive)	> 100 µM (inactive)	> 100 µM (inactive)	> 100 µM (inactive)		> 100 µM (inactive)	> 100 µM (inactive)		> 100 µM (inactive)	> 100 µM (inactive)	15.4 µM (inactive)	36.4 µM (inactive)	43.2 µM (inactive)	> 100 µM (inactive)
c1cnn(C23C4C5C6C4C2C6C53)c1 (stereo unspecified)	> 100 µM (inactive)	> 100 µM (inactive)	60.4 µM (inactive)	> 100 µM (inactive)	> 100 µM (inactive)	> 100 µM (inactive)	> 100 µM (inactive)	> 100 µM (inactive)	> 100 µM (inactive)	> 100 µM (inactive)	> 100 µM (inactive)	> 100 µM (inactive)	> 100 µM (inactive)		> 100 µM (inactive)	> 100 µM (inactive)	71.6 µM (inactive)	> 100 µM (inactive)	> 100 µM (inactive)	> 100 µM (inactive)
CC(CCCCNC(=O)OC(C)(C)C)NC(=O)NC(C)CCCCNC(=O)OC(C)(C)C (stereo unspecified)	83.2 µM (inactive)	> 100 µM (inactive)	54 µM (inactive)	63.5 µM (inactive)	> 100 µM (inactive)	43.5 µM (inactive)	95.3 µM (inactive)		> 100 µM (inactive)	> 100 µM (inactive)	> 100 µM (inactive)	41.8 µM (inactive)	> 100 µM (inactive)	> 100 µM (inactive)	> 100 µM (inactive)	> 100 µM (inactive)	> 100 µM (inactive)	99.8 µM (inactive)	> 100 µM (inactive)	> 100 µM (inactive)
Cc1c(-c2ccc(O)cc2)n(CCCCCCNCCOC(=O)NCCCc2ccc(N(CCCl)CCCl)cc2)c2ccc(O)cc12	2.67 µM (inactive)	1.69 µM (inactive)		2.21 µM (inactive)	3.71 µM (inactive)	1.89 µM (inactive)	0.766 µM (active)	1.31 µM (inactive)	2.47 µM (inactive)	1.83 µM (inactive)	2.25 µM (inactive)	1.17 µM (inactive)	1.38 µM (inactive)		1.59 µM (inactive)	13.2 µM (inactive)	12.4 µM (inactive)	0.809 µM (active)	14.9 µM (inactive)	4.21 µM (inactive)
CC(=O)NC1C(OC(C)C(=O)NC(C(=O)NC(CCC(=O)NCCCNC2c3ccccc3Nc3cccc([N+](=O)[O-])c32)C(N)=O)C(C)C)C(O)C(CO)OC1(C)OCc1ccccc1 (stereo unspecified)	0.363 µM (active)	0.579 µM (active)	1.13 µM (inactive)	1.62 µM (inactive)	0.621 µM (active)	2.33 µM (inactive)	0.343 µM (active)	0.353 µM (active)	1.37 µM (inactive)	0.264 µM (active)	1.77 µM (inactive)	0.355 µM (active)	1.1 µM (active)	1.25 µM (inactive)	0.536 µM (active)	1.56 µM (inactive)	1.63 µM (inactive)	0.215 µM (active)	1.93 µM (inactive)	
CC(C)N(C(C)C)S(=O)(=O)C[C@]12CC[C@H](CC13OCC(CS(=O)(=O)c1ccccc1)O3)C2(C)C (stereo partly specified)	24.5 µM (inactive)	47.1 µM (inactive)	34.1 µM (inactive)	28.4 µM (inactive)	47.8 µM (inactive)	28.2 µM (inactive)	36 µM (inactive)	26.5 µM (inactive)	35.3 µM (inactive)	74.6 µM (inactive)	36.4 µM (inactive)	6.98 µM (inactive)	47 µM (inactive)	69.5 µM (inactive)	45.9 µM (inactive)	95.7 µM (inactive)	> 85.3 µM (inactive)		56.6 µM (inactive)	> 93.5 µM (inactive)
CC(C)=CCc1cc(/C=C/C(=O)O)cc(CC=C(C)C)c1O [ARTEPILLIN]	76 µM (inactive)	> 100 µM (inactive)		> 100 µM (inactive)	> 100 µM (inactive)	> 100 µM (inactive)	> 100 µM (inactive)	76.6 µM (inactive)	> 100 µM (inactive)	> 100 µM (inactive)	76 µM (inactive)	> 100 µM (inactive)	> 100 µM (inactive)	87.5 µM (inactive)	> 100 µM (inactive)	> 100 µM (inactive)	> 100 µM (inactive)	> 100 µM (inactive)	> 100 µM (inactive)	
